Laboratory results as given in patent US20200253979A1, “THERAPEUTIC METHODS RELATING TO HSP90 INHIBITORS” (AI Therapeutics, Inc., priority 2017, published 2020).

Experiments:
[1] = tested on: mutant EGFR on the cell surface of H1975 cells; assay: Cell surface EGFR by flow cytometry; assay type: cell-based; details: H1975, 1 μM, 24 hours
Procedure: (§1) FIG. 3A-B: MPC-0767 reduces cell surface EGFR expression in H1975 cells (A) and PC-9 cells (B). Cells were treated with MPC-0767 (1 μM) for 24 hours before being harvested and cell expression of EGFR determined by flow cytometry.
(§2) These findings confirm that MPC-0767 targets and degrades EGFR in lung cancer cell lines.

[2] = tested on: mutant EGFR on the cell surface of PC-9 cells; assay: Cell surface EGFR by flow cytometry; assay type: cell-based; details: PC-9, 1 μM, 24 hours
Procedure: as §1, §2

[3] = tested on: BaF3 cells harboring EGFR exon20 V769_D770insASV; assay: CellTiter-Glo cell viability; assay type: cell-based, murine
Text: (§3) To determine whether MPC-0767 can also promote degradation of an EGFR exon20ins mutant, the BaF3 murine cell line was used (Warmuth et al., Curr Opin Oncol., 200719: 55-60). This cell line is dependent upon exogenous IL-3 for survival/growth but upon introduction of an oncogene, the cells no longer depend on exogenous IL-3, and instead survival is driven by the introduced oncogene. Thus, drugs that target the introduced oncogene will reduce BaF3 cell viability providing a mechanism to screen small molecules against relevant oncogenic mutations that arise in the clinic.
(§4) BaF3 cells harboring EGFR wild type (WT) or EGFR exon20 V769_D770insASV mutant were treated with increasing concentrations of MPC-0767 for 24 hours. After this time, cells were harvested for flow cytometry to assess cell surface EGFR expression (antibody for detection recognized both WT and mutant proteins). […] We further tested whether this finding translated to reduced survival in BaF3 cells expressing the EGFR mutant. Parental BaF3 cells (no mutant) or cells harboring EGFR exon20 V769_D770insASV were treated with increasing concentrations of MPC-0767 for 72 hours after which cell viability was determined using CellTiter-Glo®.

Parental BaF3 cells = assay: CellTiter-Glo cell viability; assay type: cell-based, murine; details: Mus musculus; parental BaF3, 72 hours
Text: as §3, §4

[4] = tested on: primary AML samples harboring FLT3-ITD; assay: Annexin V / 7AAD cell death by flow cytometry; assay type: cell-based, human; details: increasing concentrations, 72 hours, 4 primary samples
Procedure: To test whether the anti-leukemic effect of MPC-0767 is due to induction of cell death, 4 primary AML samples (all harboring FLT3-ITD) were treated with increasing concentrations of MPC-0767 for 72 hours. Samples were then processed for quantification by flow cytometry of cells positive for annexin V and 7AAD. These markers allow the detection of cell death, specifically dead (7AAD only positive), early apoptotic (annexin V only positive) or late stage apoptotic/necrotic (7AAD and annexin V positive) populations were combined to give a readout of cell death.

MOLM-13-LUC cells = assay: CellTiter-Glo cell viability; assay type: cell-based; details: Homo sapiens, 72 hours
Text: In the clinic, tyrosine kinase inhibitors that target FLT3 initially show positive responses, but patients inevitably relapse due to the development of drug-resistance through various mechanisms, as discussed above.

[5] = tested on: phospho-S6 in MV-4-11 cells; assay: Phospho-S6 by flow cytometry; assay type: cell-based; details: MV-4-11, 1 μM, 24 hours
Procedure: (§5) To determine whether MPC-0767 can promote the degradation of FLT3-ITD and abolish downstream signaling, MV-4-11 and MOLM-13 cells were treated with vehicle or MPC-0767 (1 μM) for 24 hours. Cells were harvested for flow cytometry to assess cell surface FLT3 protein abundance. In addition, the measurement of a key phosphorylation site of S6 (phospho-S6) was used as a marker for oncogenic FLT3-ITD signaling (Zimmerman et al., Blood. 2013 122(22): 3607-3615). Indeed, in both MV-4-11 and MOLM-13 cells treated with MPC-0767 there was a >65% reduction in cell surface FLT3 (FIGS. 10A and 10B, respectively) and >70% reduction in phospho-S6 (FIGS. 10C and 10D, respectively).

[6] = tested on: phospho-S6 in MOLM-13 cells; assay: Phospho-S6 by flow cytometry; assay type: cell-based, human; details: 24 hours
Procedure: as §5
We next explored whether the synergistic activity of MPC-0767 and ATO was due to a more complete abrogation of FLT3-ITD oncogenic signaling. […] After this time cells were harvested for the assessment of cell surface FLT3 expression by flow cytometry. To additionally measure the effects of abrogating FLT3, we assessed phospho-ERK (pERK) and phospho-S6 (pS6), as these are two known downstream effectors.

HL60 (HL-60) cells = assay: CellTiter-Glo cell viability (single agent and combination); assay type: cell-based; details: HL60, 72 h
ME1 (ME-1) cells = assay: as above; assay type: cell-based; details: ME1, 72 h
[7] = tested on: T-cell populations within MC38 tumors; assay: Effector/regulatory T-cell ratio in MC38 tumors; assay type: in vivo, mouse; details: 150 mg/kg QD×7
Procedure: To test if MPC-0767 may induce an anti-tumor immune response in addition to direct cytotoxic activity, down regulation of PD-Ll and the effector/regulatory T-cell ratio was measured in the same MC38 syngeneic model. On day 21, when the average tumor volume was 372 mm^3 in size, a second group of mice (n=6) was treated with 150 mg/kg MPC-0767 QD×7. One day post the last dose (day 28 post inoculation) tumors were harvested from the vehicle and 150 mg/kg MPC-0767 QD×7 group. Tumor infiltrating leukocytes (CD45^+, CD3^−) within the dissociated tumors were analyzed for PD-L1 expression by flow cytometry.

[8] = tested on: murine MC38 colon cancer cell line; assay: MC38 syngeneic tumor model
Text: Tumor size (mm^3), P=0.01 (Student t-test) (A) and percent body weight change (B) are shown.
When the mean tumor volume reached 73 mm^3 in size, mice were randomized into 2 groups of 6. […] Tumor measurements (caliper) were taken on the indicated days. […] Student t-test was used to evaluate the statistical significance of the difference between these groups, P=0.01.

[9] = tested on: MV-4-11 cell line (AML FLT3-ITD) xenograft; assay: Subcutaneous MV-4-11 xenograft study; details: oral, 200 mg/kg QD×2 days then 150 mg/kg QD×15 days
Procedure: Each mouse was inoculated subcutaneously in the right flank with 5×10^6 tumor cells in 0.1 ml PBS/Matrigel (1:1). When the mean tumor volume reached 91 mm^3 in size, mice were randomized into 2 groups of 10. […] Tumor measurements (caliper) were taken on the indicated days. […] Student t-test was used to evaluate the statistical significance of the difference between these groups P<0.0001.

[10] = tested on: OCIAML2 (OCI-AML-2) cells; assay: CellTiter-Glo cell viability (single agent and combination)
Procedure: To determine whether MPC-0767 is efficacious against non-FLT3-ITD AML cells, we tested a panel of FLT3-wild type (FLT3-WT) AML cell lines and primary AML blasts for sensitivity to MPC-0767. Cells were treated with MPC-0767 for 72 hours before determining cell viability using the CellTiter-Glo® assay. […] To test whether the combination of MPC-0767 was synergistic with ATO, we tested a panel of AML cell lines. The cell lines include those harboring FLT3-ITD (MOLM-13, MOLM-14 and MV-4-11) or FLT3 WT (ME-1, THP-1, OCI-AML-2, HL60, NOMO-1, TUR and ML-2).

Structure (SMILES): C[C@H](N)C(=O)O[C@@H](C)C(=O)N1CCC(CCn2c(Sc3cc4c(cc3Br)OCO4)nc3c(N)ncnc32)CC1 [MPC-0767]
- mutant EGFR on the cell surface [1]: decreased
- mutant EGFR on the cell surface [2]: decreased
- EC50 ([3]; Mus musculus, BaF3 EGFR exon20 V769_D770insASV, 72 hours): 236 nM
- sensitivity to MPC-0767 relative to parental cells ([3]; mutant vs parental BaF3, 72 hours): approximately 3 times
- EC50 (Parental BaF3 cells): 753 nM
- cell death (annexin V and/or 7AAD positive) [4]: dose-dependent increase in cell death
- EC50 (MOLM-13-LUC cells): 496 nM
- reduction in phospho-S6 [5]: > 70%
- reduction in phospho-S6 ([6]; MOLM-13, 1 μM): > 70%
- pS6 level ([6]; MOLM-13, MPC-0767 800 nM, ATO 625 nM or combination): reduced
- MPC-0767 Sensitivity (HL60 (HL-60) cells): Resistant (EC50 values above 1 μM considered resistant)
- EC50 (HL60 (HL-60) cells; Homo sapiens, HL-60): 1960 nM
- MPC-0767 Sensitivity (ME1 (ME-1) cells): Resistant (EC50 values above 1 μM considered resistant)
- EC50 (ME1 (ME-1) cells; ME-1): 3420 nM
- CD4:TREG ratio [7]: significant increase
- CD8:TREG ratio [7]: significant increase
- effect on body weight ([8]; oral 150 mg/kg QD×17): without significant effects on body weight
- tumor growth inhibition ([8]; oral 150 mg/kg QD×17, P=0.01): 69.5%
- effect on body weight [9]: without significant effects on body weight
- tumor regression [9]: 84%
- complete tumor regression (animals) ([9]; n=10): 5/10 and Five
- EC50 ([10]; Homo sapiens, OCI-AML2, 72 h): 633 nM
- MPC-0767 Sensitivity ([10]; OCIAML2, 72 h): Sensitive (cell lines having EC50 values below 1 μM were considered to be sensitive)
